Measurements as given in PubChem BioAssay (NCI).
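Test compounds were applied to cells in 96-well plates for 48 hours at 5 doses. TGI is the concentration that stops growth completely.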

Tests used:
Assay in all cases: DTP human tumour cell line panel, 48 h
ACHN renal = system: ACHN renal
EKVX NSCLC = system: EKVX NSCLC
HOP-62 NSCLC = system: HOP-62 NSCLC
HOP-92 NSCLC = system: HOP-92 NSCLC
NCI-H460 lung = system: NCI-H460 lung
NCI-H522 lung = system: NCI-H522 lung
OVCAR-3 ovarian = system: OVCAR-3 ovarian
OVCAR-4 ovarian = system: OVCAR-4 ovarian
SF-295 CNS = system: SF-295 CNS
SF-539 CNS = system: SF-539 CNS
T-47D breast = system: T-47D breast
MDA-N = system: MDA-N

SMILES | TGI (ACHN renal) [µM] | TGI (EKVX NSCLC) [µM] | TGI (HOP-62 NSCLC) [µM] | TGI (HOP-92 NSCLC) [µM] | TGI (NCI-H460 lung) [µM] | TGI (NCI-H522 lung) [µM] | TGI (OVCAR-3 ovarian) [µM] | TGI (OVCAR-4 ovarian) [µM] | TGI (SF-295 CNS) [µM] | TGI (SF-539 CNS) [µM] | TGI (T-47D breast) [µM] | TGI (MDA-N) [µM]
CC(C)(C)c1cc(C(=O)/C=C/C=C/c2ccccc2)cc(C(C)(C)C)c1O | > 100 | > 100 | > 100 | > 100 | 31.5 | 52.5 | > 94.1 | > 100 | > 100 | 33.6 | > 100 | 
CC#C[P+](c1ccccc1)(c1ccccc1)c1ccccc1 | 21.8 | 22.5 | 17.4 | 5.42 | 19.2 | 0.924 | 14.3 | 20.1 | 9.15 | 10.1 |  | 
COc1ccc(-c2c(C#N)c(O)n(NS(=O)(=O)c3ccc(C)cc3)c(=O)c2C#N)cc1 | > 100 | > 100 | > 100 | > 100 | > 100 | > 100 |  | > 100 | > 100 | > 100 |  | > 100
CCOC(=O)c1ccc(NC(=O)O/N=C(/Cl)CCl)cc1 | > 100 | > 100 | > 100 |  | > 100 |  | > 100 | > 100 | > 100 | > 100 | > 100 | > 100
N#CC1(C#N)C2CCCCC23OC(=N)C1(C#N)C(c1ccccc1)O3 (stereo not given) | > 100 | 60.6 |  | 33.6 | 49.7 |  | 28.2 |  | > 100 | 42.1 | 57.9 | 27.9
O=C(NC(CO)Cc1ccc(Oc2cc(CC(CO)NC(=O)OCc3ccccc3)ccc2OC(=O)OCc2ccccc2)cc1)OCc1ccccc1 (stereo not given) | 62.7 | 47.8 | 52.6 | 54.3 | 38.9 |  | 45 | 65.3 | 35.2 | 38.5 | 23.1 | 50.3
O=C1/C(=C/c2ccccc2)NC(=S)N1CN1CCOCC1 | > 100 | > 100 | > 100 | > 100 |  |  | > 100 | > 100 | > 100 |  |  | > 100
CC1C[C@]2(C)C(=O)Nc3ccccc3[C@@H]2Nc2ccccc21 (stereo not given in full) | > 100 | 81.8 | 57.4 | 27.6 | 65.8 |  | 35.9 | > 100 | > 100 | 63.5 | > 100 | > 100
CC1(C)OC2C(O)CN3CCS[C@H]3C2O1 (stereo not given in full) | > 100 | > 100 | > 100 | > 100 | > 100 | > 100 | > 100 | > 100 | > 100 |  | > 100 | 
CC(C)=CCc1c(O)ccc2ccc(=O)oc12 |  | > 100 |  | 94.6 | > 100 | > 100 | > 100 | > 100 | > 100 | > 31.6 |  | 
CSc1nncc2[nH]c(C)nc12 | > 100 | > 100 | > 100 |  |  | > 100 | > 100 | > 100 | > 100 | > 100 | > 100 | > 100
Cn1c(N)c2c3c(sc2nc1=O)CCCC3 | > 75 | > 75 | > 75 |  | > 75 | > 75 | > 75 | > 75 | > 75 |  | > 75 | > 75
CC(/C=N\NC(=S)N1CCCCC1)=N/NC(=S)N1CCCCC1 | 7.16 | 14.8 | 11 | 7.48 | 9.76 | 5.68 | 5.12 | 15.8 | 14.4 | > 100 |  | 12.1
O=C(O)CCN(CCC(=O)O)c1ccc(/C=C2\SC(=S)NC2=O)cc1 | > 100 | > 100 | > 100 | > 100 | > 100 | > 100 | > 100 | > 100 | > 100 | > 100 | > 100 | 
CC(C)(C)[Si](C)(C)OC1/C(=C/C#N)C(n2ccc(=O)[nH]c2=O)OC1CO (stereo not given) | > 100 |  | > 100 | > 100 | > 100 | > 100 | > 100 | > 100 | > 100 | > 100 | > 100 | > 100
O=C(NS(=O)(=O)OCC(Cl)(Cl)Cl)SCCC(F)(F)C(F)(F)C(F)(F)C(F)(F)C(F)(F)C(F)(F)F | > 100 | 35.5 | 72.4 | 23.4 | 41.5 | 41.8 | 48.3 | 31.8 | 38.9 | 34.5 | 98.4 | 
Cc1ccsc1/C=N/Nc1ccc2ccccc2n1 | > 100 | > 100 | 68.8 | 82 |  |  | > 100 | > 100 | 31 |  | > 100 | > 100
N#C/C(N)=C(\C#N)NC=NCc1ccccc1 | > 100 | > 100 | > 100 |  | > 100 | > 100 | > 100 | > 100 | > 100 | > 100 | > 100 | > 100
COc1ccc(N2C(=O)CS(=O)(=O)C2c2cccc(Oc3ccccc3)c2)cc1 (stereo not given) | 32.8 | 47.8 | > 100 | 72.1 | 8.03 | 13.8 | > 100 | 79.5 | > 100 | 15.1 | > 100 | 
O=S(=O)(O)c1ccc(N=Nc2ccc(N=Nc3c(O)ccc4ccccc34)cc2)cc1 | > 100 | > 100 | > 100 | > 100 | > 100 | > 100 | > 100 | > 100 | > 100 |  | > 100 | > 100
Nc1nc2c(ncn2Cc2ccc(CO)cc2)c(=O)[nH]1 | > 100 | > 100 | > 100 | > 100 | > 100 | > 100 | > 100 | > 100 | > 100 | > 100 | > 100 | 
